# From US9120793B2, “Triazolo-pyridine compound” (Eli Lilly and Company, priority 2013, dated 2015)
# Tests used:
# Male Balb/c mice = assay: Intraperitoneal glucose tolerance test (ipGTT); type: in vivo; set-up: key to Effect on blood glucose, statistical significance compared to vehicle during ipGTT: *P < 0.05; **P < 0.01; ****P < 0.0001; ns: not significant
# Text: To examine the ability of the compound of Example 1 to activate GPR-40 in-vivo resulting in anti-diabetic efficacy, i.e. reduction in plasma glucose levels, an intraperitoneal glucose tolerance test (ipGTT) study is completed, and the data is shown for the compound of Example 1, below in Table 7.
# Male Balb/c (Albino mice) mice (8-9 weeks of age) are single housed, and fed with normal rodent chow diet and water ad libitum. Animals are weighed; randomized by body weight; and their daily body weights are recorded. On the night before the study, animals are fasted overnight. In the morning, animals are dosed orally with compound of Example 1 or vehicle alone 60 minutes prior to the glucose tolerance test (glucose 2 g/kg, i.p.). Blood glucose levels are determined from tail bleeds taken at 0, 3, 7, 15, 30, and 60 min after glucose challenge. […] Percent lowering in glucose is calculated from the AUC data of the compound with respect to the AUC of vehicle group. The compound of Example 1 is orally administered at 0.1, 0.3, 1.0, 3.0, 10, or 30 mg/kg, and a positive control (3-[4-(2-methyl-benzyloxy)-phenyl]-hex-4-ynoic acid) is administered at 10 mg/kg.
# PPARγ = molecular target: T1, PPARγ (Homo sapiens, UniProt P37231); assay: PPARγ reporter (CTF)/functional assay in CV1 cells; type: cell-based
# T1 construct: expressed in transfected cells; host or cells: CV1 (African green monkey kidney)
# T1 sequence (P37231 1-505): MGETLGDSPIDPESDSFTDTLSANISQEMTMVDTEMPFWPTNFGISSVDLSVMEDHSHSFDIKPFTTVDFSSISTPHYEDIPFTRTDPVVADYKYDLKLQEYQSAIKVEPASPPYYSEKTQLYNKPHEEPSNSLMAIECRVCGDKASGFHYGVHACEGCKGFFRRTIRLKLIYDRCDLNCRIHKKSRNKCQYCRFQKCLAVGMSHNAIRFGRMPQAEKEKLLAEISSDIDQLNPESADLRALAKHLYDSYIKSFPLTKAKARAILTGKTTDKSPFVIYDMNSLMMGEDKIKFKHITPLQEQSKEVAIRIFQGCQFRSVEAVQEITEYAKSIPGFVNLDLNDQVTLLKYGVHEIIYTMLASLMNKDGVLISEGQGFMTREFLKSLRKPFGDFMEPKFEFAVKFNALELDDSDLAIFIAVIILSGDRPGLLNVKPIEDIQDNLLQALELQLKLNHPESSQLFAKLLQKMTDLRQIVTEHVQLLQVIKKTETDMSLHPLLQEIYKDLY
# T1 sequence (P19793 1-462 partner): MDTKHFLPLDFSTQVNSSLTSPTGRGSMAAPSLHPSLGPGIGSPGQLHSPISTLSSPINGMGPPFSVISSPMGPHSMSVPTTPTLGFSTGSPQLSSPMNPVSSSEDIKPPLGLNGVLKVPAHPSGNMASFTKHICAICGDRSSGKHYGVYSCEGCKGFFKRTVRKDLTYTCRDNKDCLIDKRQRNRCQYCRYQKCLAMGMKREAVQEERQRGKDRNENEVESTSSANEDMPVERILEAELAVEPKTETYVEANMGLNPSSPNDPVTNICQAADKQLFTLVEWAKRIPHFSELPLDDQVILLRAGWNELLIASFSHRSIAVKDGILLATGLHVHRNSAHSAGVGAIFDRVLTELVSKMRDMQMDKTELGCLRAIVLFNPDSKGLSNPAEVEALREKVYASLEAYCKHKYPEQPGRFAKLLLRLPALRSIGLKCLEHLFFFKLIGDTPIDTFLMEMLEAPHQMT
# Text: Because GPR-40 is known to be activated by ligands to PPARγ, exemplified compounds are examined in PPARα, PPARδ, and PPARγ reporter assays to determine the selectivity of an exemplified compound. CV1 cells, which are derived from the renal tissue of an African green monkey, are transfected with various receptor and reporter plasmids using Fugene. For the PPARα and PPARδ assays, a reporter plasmid containing five tandem copies of the yeast transcription protein Gal4 response element, cloned upstream of a firefly luciferase gene driven by the major late promoter of adenovirus, is transfected together with a Simian Virus 40 (SV40) driven plasmid constitutively expressing a hybrid protein containing the Gal4 DNA binding domain (DBD), and either the PPARα or PPARδ ligand binding domain. For the PPARγ assay, plasmids encoding PPARγ and RXRα, both driven by a cytomegalovirus (CMV) promoter are transfected together with a plasmid containing luciferase reporter cDNA driven by the TK promoter and a receptor response element (2×PPRE). […] After 24 hours incubation with compound, cells are lysed and luciferase activity is determined as a measure of receptor activation by luminescence. […] The maximum percent stimulation is determined versus maximum stimulation obtained with 10 μM of an appropriate PPAR agonist reference compound. […]
structure (smiles),measurement,setting,value
"CC#C[C@@H](CC(=O)O)c1ccc(OCc2ccc3nc(-c4c(C)cccc4C)nn3c2)cc1 [Example 1, (3S)-3-[4-[[2-(2,6-Dimethylphenyl)-[1,2,4]triazolo[1,5-a]pyridin-6-yl]methoxy]phenyl]hex-4-ynoic acid]",glucose levels at the 15 minute time point,"Male Balb/c mice; 30 mg/kg dose, oral",significantly lowered
same,glucose levels at the 3 or 7 minute time points,"Male Balb/c mice; Example 1 0.1-30 mg/kg oral, positive control 10 mg/kg",No concentration of compound of Example 1 or the positive control significantly lowered
same,glucose levels at the 30 minute time point,"Male Balb/c mice; Example 1 1.0, 10 and 30 mg/kg doses, positive control 10 mg/kg",significantly lowered
same,glucose levels at the 60 minute time point,"Male Balb/c mice; Example 1 3.0, 10 and 30 mg/kg doses, positive control 10 mg/kg",significantly lowered
same,ED50,"Male Balb/c mice; Mus musculus, oral, 60 minutes prior to glucose 2 g/kg i.p., read-out: ED50 based on AUCs for glucose lowering",7.6 mg/kg
same,"Effect on blood glucose, statistical significance compared to vehicle during ipGTT","Male Balb/c mice; dose 0.1 mpk oral, time 0 min",Ns
same,"Effect on blood glucose, statistical significance compared to vehicle during ipGTT","Male Balb/c mice; dose 0.1 mpk oral, time 3 min",ns
same,"Effect on blood glucose, statistical significance compared to vehicle during ipGTT","Male Balb/c mice; dose 0.1 mpk oral, time 7 min",ns
same,"Effect on blood glucose, statistical significance compared to vehicle during ipGTT","Male Balb/c mice; dose 0.1 mpk oral, time 15 min",Ns
same,"Effect on blood glucose, statistical significance compared to vehicle during ipGTT","Male Balb/c mice; dose 0.1 mpk oral, time 30 min",ns
same,"Effect on blood glucose, statistical significance compared to vehicle during ipGTT","Male Balb/c mice; dose 0.1 mpk oral, time 60 min",ns
same,"Effect on blood glucose, statistical significance compared to vehicle during ipGTT","Male Balb/c mice; dose 0.3 mpk oral, time 0 min",Ns
same,"Effect on blood glucose, statistical significance compared to vehicle during ipGTT","Male Balb/c mice; dose 0.3 mpk oral, time 3 min",ns
same,"Effect on blood glucose, statistical significance compared to vehicle during ipGTT","Male Balb/c mice; dose 0.3 mpk oral, time 7 min",ns
same,"Effect on blood glucose, statistical significance compared to vehicle during ipGTT","Male Balb/c mice; dose 0.3 mpk oral, time 15 min",ns
same,"Effect on blood glucose, statistical significance compared to vehicle during ipGTT","Male Balb/c mice; dose 0.3 mpk oral, time 30 min",ns
same,"Effect on blood glucose, statistical significance compared to vehicle during ipGTT","Male Balb/c mice; dose 0.3 mpk oral, time 60 min",ns
same,"Effect on blood glucose, statistical significance compared to vehicle during ipGTT","Male Balb/c mice; dose 1 mpk oral, time 0 min",Ns
same,"Effect on blood glucose, statistical significance compared to vehicle during ipGTT","Male Balb/c mice; dose 1 mpk oral, time 3 min",ns
same,"Effect on blood glucose, statistical significance compared to vehicle during ipGTT","Male Balb/c mice; dose 1 mpk oral, time 7 min",ns
same,"Effect on blood glucose, statistical significance compared to vehicle during ipGTT","Male Balb/c mice; dose 1 mpk oral, time 15 min",ns
same,"Effect on blood glucose, statistical significance compared to vehicle during ipGTT","Male Balb/c mice; dose 1 mpk oral, time 30 min",* (*P < 0.05)
same,"Effect on blood glucose, statistical significance compared to vehicle during ipGTT","Male Balb/c mice; dose 1 mpk oral, time 60 min",ns
same,"Effect on blood glucose, statistical significance compared to vehicle during ipGTT","Male Balb/c mice; dose 3 mpk oral, time 0 min",Ns
same,"Effect on blood glucose, statistical significance compared to vehicle during ipGTT","Male Balb/c mice; dose 3 mpk oral, time 3 min",ns
same,"Effect on blood glucose, statistical significance compared to vehicle during ipGTT","Male Balb/c mice; dose 3 mpk oral, time 7 min",ns
same,"Effect on blood glucose, statistical significance compared to vehicle during ipGTT","Male Balb/c mice; dose 3 mpk oral, time 15 min",ns
same,"Effect on blood glucose, statistical significance compared to vehicle during ipGTT","Male Balb/c mice; dose 3 mpk oral, time 30 min",ns
same,"Effect on blood glucose, statistical significance compared to vehicle during ipGTT","Male Balb/c mice; dose 3 mpk oral, time 60 min",** (**P < 0.01)
same,"Effect on blood glucose, statistical significance compared to vehicle during ipGTT","Male Balb/c mice; dose 10 mpk oral, time 0 min",Ns
same,"Effect on blood glucose, statistical significance compared to vehicle during ipGTT","Male Balb/c mice; dose 10 mpk oral, time 3 min",ns
same,"Effect on blood glucose, statistical significance compared to vehicle during ipGTT","Male Balb/c mice; dose 10 mpk oral, time 7 min",ns
same,"Effect on blood glucose, statistical significance compared to vehicle during ipGTT","Male Balb/c mice; dose 10 mpk oral, time 15 min",ns
same,"Effect on blood glucose, statistical significance compared to vehicle during ipGTT","Male Balb/c mice; dose 10 mpk oral, time 30 min",**** (****P < 0.0001)
same,"Effect on blood glucose, statistical significance compared to vehicle during ipGTT","Male Balb/c mice; dose 10 mpk oral, time 60 min",**** (****P < 0.0001)
same,"Effect on blood glucose, statistical significance compared to vehicle during ipGTT","Male Balb/c mice; dose 30 mpk oral, time 0 min",Ns
same,"Effect on blood glucose, statistical significance compared to vehicle during ipGTT","Male Balb/c mice; dose 30 mpk oral, time 3 min",ns
same,"Effect on blood glucose, statistical significance compared to vehicle during ipGTT","Male Balb/c mice; dose 30 mpk oral, time 7 min",ns
same,"Effect on blood glucose, statistical significance compared to vehicle during ipGTT","Male Balb/c mice; dose 30 mpk oral, time 15 min",** (**P < 0.01)
same,"Effect on blood glucose, statistical significance compared to vehicle during ipGTT","Male Balb/c mice; dose 30 mpk oral, time 30 min",**** (****P < 0.0001)
same,"Effect on blood glucose, statistical significance compared to vehicle during ipGTT","Male Balb/c mice; dose 30 mpk oral, time 60 min",**** (****P < 0.0001)
same,EC50,"PPARγ; CV1 cells, luciferase reporter, 24 hours",2.6 µM
same,Emax,"PPARγ; CV-1, versus 10 μM PPAR agonist reference compound, <20% considered negative, read-out: % efficacy in PPARγ CTF assay",17%
